# Laboratory results reported in patent US6737383B1, “Herbicidal oxadiazolidines” (priority 1999, dated 2004).
# Experiments:
# bedstraw = test: Test B pre/postemergence bedstraw; type: in vivo, Galium aparine; conditions: Preemergence
# Summary of the method: (§1)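 Test chemicals in a non-phytotoxic solvent mixture with surfactant were sprayed preemergence onto planted seeds and postemergence onto plants 2 to 18 cm tall (1- to 4-leaf stage). After twelve to sixteen days in a greenhouse, injury was visually rated against untreated controls from 0 (no effect) to 10 (complete control).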
# blackgrass = test: Test B pre/postemergence blackgrass; type: in vivo, Alopecurus myosuroides
# Summary of the method: as §1
# surinam grass = test: Test B pre/postemergence surinam grass; type: in vivo, Brachiaria decumbens
# Summary of the method: as §1
# cocklebur = test: Test B pre/postemergence cocklebur; type: in vivo, Xanthium strumarium
# Summary of the method: as §1
# corn = test: Test B pre/postemergence corn; type: in vivo, Zea mays
# Summary of the method: as §1
# crabgrass = test: Test B pre/postemergence crabgrass; type: in vivo, Digitaria sanguinalis
# Summary of the method: as §1
# giant foxtail = test: Test B pre/postemergence giant foxtail; type: in vivo, Setaria faberii
# Summary of the method: as §1
# morningglory = test: Test B pre/postemergence morningglory; type: in vivo, Ipomoea hederacea
# Summary of the method: as §1
# pigweed = test: Test B pre/postemergence pigweed; type: in vivo, Amaranthus retroflexus
# Summary of the method: as §1
# rape = test: Test B pre/postemergence rape; type: in vivo, Brassica napus
# Summary of the method: as §1
# soybean = test: Test B pre/postemergence soybean; type: in vivo, Glycine max
# Summary of the method: as §1
# sugar beet = test: Test B pre/postemergence sugar beet; type: in vivo, Beta vulgaris
# Summary of the method: as §1
# velvetleaf = test: Test B pre/postemergence velvetleaf; type: in vivo, Abutilon theophrasti
# Summary of the method: as §1
# wheat = test: Test B pre/postemergence wheat; type: in vivo, Triticum aestivum
# Summary of the method: as §1
# wild oat = test: Test B pre/postemergence wild oat; type: in vivo, Avena fatua
# Summary of the method: as §1
# purple nutsedge = test: Test B pre/postemergence purple nutsedge; type: in vivo, Cyperus rotundus
# Summary of the method: as §1
# rice = test: Test B flood test rice; type: in vivo, Oryza sativa
# Summary of the method: (§2)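 Each value is a visual injury score relative to controls, with 10 meaning complete control and 0 no effect. Evaluation took place twelve to sixteen days after the 2-leaf-stage plants were treated and kept in the greenhouse.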
# smallflower flatsedge = test: Test B flood test smallflower flatsedge; type: in vivo, Cyperus difformis
# Summary of the method: as §2
# duck salad = test: Test B flood test duck salad; type: in vivo, Heteranthera limosa
# Summary of the method: as §2
# bamyardgrass = test: Test B flood test barnyardgrass; type: in vivo, Echinochloa crus-galli
# Summary of the method: as §2
# [1] = Postemergence, Rate 62 g/ha, scale 0 to 10, 0 is no effect, 10 is complete control
# [2] = Postemergence, Rate 125 g/ha, scale of 0 to 10 where 0 is no effect and 10 is complete control
# [3] = Postemergence, Rate 500 g/ha, scale 0 (no effect) to 10 (complete control)
# [4] = Preemergence, Rate 250 g/ha, scale 0 (no effect) to 10 (complete control)
# [5] = Rate 62 g/ha, Preemergence, scale 0 to 10
# [6] = Rate 250 g/ha, Postemergence, scale 0 to 10, 0 is no effect, 10 is complete control
# [7] = Rate 500 g/ha, Preemergence, scale 0 to 10 (0 no effect, 10 complete control)
# [8] = Rate 125 g/ha, Preemergence, scale 0 to 10 (0 no effect, 10 complete control)
# [9] = Pre-emergence, Rate 62 g/ha, scale 0 to 10, 0 is no effect, 10 is complete control
# [10] = Rate 125 g/ha, Pre-emergence section (flood test species), scale 0 to 10, 0 no effect, 10 complete control
# [11] = Rate 250 g/ha, Pre-emergence (flood test species), scale 0 to 10, 0 is no effect, 10 is complete control
# [12] = Rate 500 g/ha, Pre-emergence section of Table B, 0 to 10 scale (0 no effect, 10 complete control)
structure (smiles),measurement,setting,value
CC(C)N(C(=O)n1oc(=O)n(CC2=NOCCO2)c1=O)c1ccc(F)cc1 [Compound 765],Bedstraw plant response rating,"bedstraw; Rate 250 g/ha, scale 0 (no effect) to 10 (complete control)",2
same,Bedstraw plant response rating,"bedstraw; Rate 62 g/ha, scale 0 to 10",0
same,Bedstraw plant response rating,"bedstraw; Rate 500 g/ha, scale 0 to 10 (0 no effect, 10 complete control)",8
same,"Plant response rating, Blackgrass",blackgrass; [1],3
same,Blackgrass plant response rating,blackgrass; [2],5
same,Blackgrass plant response rating,blackgrass; [3],7
same,Blackgrass plant response rating,blackgrass; [4],8
same,Blackgrass plant response rating,blackgrass; [5],7
same,Blackgrass plant response rating,blackgrass; [6],7
same,Blackgrass plant response rating,blackgrass; [7],9
same,"Plant response rating, B. signalgrass",surinam grass; [1],3
same,B. signalgrass plant response rating,surinam grass; [2],7
same,B. signalgrass plant response rating,"surinam grass; Preemergence, Rate 62 g/ha, scale of 0 to 10 where 0 is no effect and 10 is complete control",5
same,B. signalgrass plant response rating,surinam grass; [4],7
same,B. signalgrass plant response rating,surinam grass; [6],7
same,B. signalgrass plant response rating,"surinam grass; Rate 500 g/ha, Postemergence, scale 0 to 10, 0 is no effect, 10 is complete control",8
same,B. signalgrass plant response rating,surinam grass; [7],7
same,"Plant response rating, Cocklebur",cocklebur; [1],0
same,Cocklebur plant response rating,cocklebur; [2],0
same,Cocklebur plant response rating,cocklebur; [3],3
same,Cocklebur plant response rating,cocklebur; [4],0
same,Cocklebur plant response rating,cocklebur; [5],0
same,Cocklebur plant response rating,cocklebur; [8],0
same,Cocklebur plant response rating,cocklebur; [6],0
same,Cocklebur plant response rating,cocklebur; [7],0
same,"Plant response rating, Corn",corn; [1],0
same,Corn plant response rating,corn; [2],0
same,Corn plant response rating,corn; [3],3
same,Corn plant response rating,corn; [4],0
same,Corn plant response rating,corn; [5],0
same,Corn plant response rating,corn; [8],0
same,Corn plant response rating,corn; [6],0
same,Corn plant response rating,corn; [7],2
same,"Plant response rating, Crabgrass",crabgrass; [1],3
same,Crabgrass plant response rating,crabgrass; [2],5
same,Crabgrass plant response rating,crabgrass; [3],9
same,Crabgrass plant response rating,crabgrass; [4],10
same,Crabgrass plant response rating,crabgrass; [5],9
same,Crabgrass plant response rating,crabgrass; [8],10
same,Crabgrass plant response rating,crabgrass; [6],7
same,Crabgrass plant response rating,crabgrass; [7],10
same,"Plant response rating, Giant foxtail",giant foxtail; [1],5
same,Giant foxtail plant response rating,giant foxtail; [2],8
same,Giant foxtail plant response rating,giant foxtail; [3],9
same,Giant foxtail plant response rating,giant foxtail; [4],10
same,Giant foxtail plant response rating,giant foxtail; [5],9
same,Giant foxtail plant response rating,giant foxtail; [8],10
same,Giant foxtail plant response rating,giant foxtail; [6],9
same,Giant foxtail plant response rating,giant foxtail; [7],10
same,"Plant response rating, Morningglory",morningglory; [1],5
same,Morningglory plant response rating,morningglory; [2],6
same,Morningglory plant response rating,morningglory; [3],8
same,Morningglory plant response rating,morningglory; [5],0
same,Morningglory plant response rating,morningglory; [8],0
same,Morningglory plant response rating,morningglory; [6],6
same,Morningglory plant response rating,morningglory; [7],0
same,"Plant response rating, Redroot pigweed",pigweed; [1],6
same,Redroot pigweed plant response rating,pigweed; [2],7
same,Redroot pigweed plant response rating,pigweed; [3],8
same,Redroot pigweed plant response rating,pigweed; [5],8
same,Redroot pigweed plant response rating,pigweed; [7],10
same,"Plant response rating, Rape",rape; [1],0
same,Rape plant response rating,rape; [2],0
same,Rape plant response rating,rape; [3],1
same,Rape plant response rating,rape; [5],2
same,Rape plant response rating,rape; [6],0
same,Rape plant response rating,rape; [7],8
same,"Plant response rating, Soybean",soybean; [1],2
same,Soybean plant response rating,soybean; [3],5
same,Soybean plant response rating,soybean; [5],0
same,Soybean plant response rating,soybean; [8],0
same,Soybean plant response rating,soybean; [6],5
same,Soybean plant response rating,soybean; [7],0
same,"Plant response rating, Sugarbeets",sugar beet; [1],0
same,Sugarbeets plant response rating,sugar beet; [3],4
same,Sugarbeets plant response rating,sugar beet; [5],6
same,Sugarbeets plant response rating,sugar beet; [6],0
same,Sugarbeets plant response rating,sugar beet; [7],9
same,"Plant response rating, Velvetleaf",velvetleaf; [1],6
same,Velvetleaf plant response rating,velvetleaf; [3],7
same,Velvetleaf plant response rating,velvetleaf; [5],0
same,Velvetleaf plant response rating,velvetleaf; [8],4
same,Velvetleaf plant response rating,velvetleaf; [6],7
same,Velvetleaf plant response rating,velvetleaf; [7],7
same,"Plant response rating, Wheat",wheat; [1],0
same,Wheat plant response rating,wheat; [3],5
same,Wheat plant response rating,wheat; [5],3
same,Wheat plant response rating,wheat; [6],3
same,Wheat plant response rating,wheat; [7],8
same,"Plant response rating, Wild oats",wild oat; [1],0
same,Wild oats plant response rating,wild oat; [3],2
same,Wild oats plant response rating,wild oat; [5],4
same,Wild oats plant response rating,wild oat; [6],0
same,Wild oats plant response rating,wild oat; [7],9
same,"Plant response rating, Nutsedge",purple nutsedge; [1],0
same,Nutsedge plant response rating,purple nutsedge; [2],0
same,Nutsedge plant response rating,purple nutsedge; [3],3
same,Nutsedge plant response rating,purple nutsedge; [5],0
same,Nutsedge plant response rating,purple nutsedge; [6],0
same,Nutsedge plant response rating,purple nutsedge; [7],0
same,Rice plant response rating,rice; [9],0
same,Rice plant response rating,rice; [10],0
same,Rice plant response rating,rice; [11],0
same,Rice plant response rating,rice; [12],0
same,S. Flatsedge plant response rating,smallflower flatsedge; [9],0
same,S. Flatsedge plant response rating,smallflower flatsedge; [10],0
same,S. Flatsedge plant response rating,smallflower flatsedge; [11],0
same,S. Flatsedge plant response rating,smallflower flatsedge; [12],0
same,Ducksalad plant response rating,duck salad; [9],0
same,Ducksalad plant response rating,duck salad; [10],0
same,Ducksalad plant response rating,duck salad; [11],0
same,Ducksalad plant response rating,duck salad; [12],0
same,Barnyardgrass plant response rating,bamyardgrass; [9],0
same,Barnyardgrass plant response rating,bamyardgrass; [10],0
same,Barnyardgrass plant response rating,bamyardgrass; [11],0
same,Barnyardgrass plant response rating,bamyardgrass; [12],0
